Tests used:
[1] = target: T1, recombinant human VE-cadherin FC fusion protein (Homo sapiens, UniProt P33151); assay: ELISA: binding of FLAG-tagged peptide to coated VE-cadherin; details: FLAG-tagged peptide 0-80 μMol
T1 construct: Fc (immunoglobulin Fc fusion partner); purchased R&D Systems, Minneapolis
Description: (§1) We have developed a modified ELISA working with the same principles described by others, but the purpose of the herein described ELISA is not to quantify fibrin degradation products, but to search for proteins, peptides or compounds which interfere with the binding of the Bbeta15-42 sequence and the VE-cadherin. […] Into this system one can introduce any other additional substance and measure if this substance inhibits VE-cadherin/Bbeta15-42 binding.
(§2) In detail, 96 well protein immobilizer plates (Exiqon, Vedbaek, D K) were coated with recombinant human VE-cadherin FC fusion protein (8 nM/ml; R&D Systems, Minneapolis) in PBS and were left overnight at 4° C. Plates were then washed and incubated with peptide Bβ15-42 ([…]) tagged with a FLAG-sequence (DYKDDDDK) at the C-terminus of the peptide or with a FLAG-tagged random peptide ([…]) at a concentration of 0-80 μMol. After washing, bound FLAG-tagged peptide was detected by incubation with a peroxidase-labelled anti-FLAG antibody (Sigma, St. Louis, USA) and chromogenic substrate. Optical density was determined by an ELISA plate reader set at a wavelength of 450 nm. Data represent the mean of three independent experiments, each performed in triplicates.

VE-cadherin = target: T2, VE-cadherin (Homo sapiens, UniProt P33151); assay: Competition ELISA: inhibition of FLAG-tagged Bbeta15-42 binding to VE-cadherin
T2 construct: Fc (immunoglobulin Fc fusion partner); purchased R&D Systems, Minneapolis
Description: as §1, §2
In a next step, we analyzed whether this ELISA can be used to screen for other peptides/compounds to compete with the binding of the Bβ15-42 sequence to VE-cadherin.
VE-cadherin was coated to the plastic surface at a concentration of 8 nM. Then indicated peptides were added at concentrations of 200 μM, NDSK or NDSK-II were added at indicated concentrations. Detection of binding of the FLAG-tagged Bbeta15-42 (12 μM) was performed as described above.

[2] = test system: Dengue virus type 2 (DEN-2), strain P23085; assay: Treatment of dengue virus infected mice; assay type: in vivo, BALB/c mice; details: for IL-1 / IL-6 / TNF: serum
[3] = test system: Gram-negative shock, Lipopolysaccharide from E. coli, serotype 0.127:B8; assay: Gram-negative shock (LPS-induced multiple organ failure) in rats; assay type: in vivo, Wistar rats; design: Glucose / Amylase / ALT / AST / Creatinine / Urea / heart rate (mean): unit not given here; details: for mean number of fibrin thrombi within vessels: end of the experiment, acidic fuchsin-orange G stain
Experimental: Male Wistar rats weighing 230-280 g were housed in the Tierversuchsanlage (University of Düisseldorf) and fed on a standard diet with water ad libitum. All procedures were carried out in accordance with the AAALAC guidelines and Guide for the Care and Use of Laboratory Animals (Department of Health and Human Services, National Institutes of Health, Publication No. 86-23). In addition, all experiments have been approved by an ethical and research board of the University of Düisseldorf and the county. As previously described (Zacharowski et al. Crit. Care Med 2000, Zacharowski et al. Crit. Care Med 2001; 29:1599-1608), rats were anaesthetized with sodium thiopentone (120 mg/kg i.p.) and anesthesia was maintained with supplementary doses of sodium thiopentone as required.
The trachea was cannulated to facilitate respiration and rectal temperature was maintained at 37° C. with a homoeothermic blanket. […] The right jugular vein was cannulated for the administration of drugs. The bladder was also cannulated to facilitate urine flow and to prevent the possibility of the development of post-renal failure. All animals received a total fluid replacement of 1.0 ml/kg/h (0.9% sodium chloride, saline, as an i.v. infusion into the jugular vein) throughout the experiment. Upon completion of the surgical procedure, cardiovascular parameters were allowed to stabilize for 15 min and constantly recorded over 6 h. In this model of LPS-induced multiple organ failure, a period of 6 h is essential to achieve a significant rise in the serum levels of AST and ALT, while a significant rise in the serum levels of urea and creatinine can already be observed after 2 h.
Three groups were studied: Rats were subjected to sham operation: (sham). Rats were subjected to Gram-negative shock. Lipopolysaccharide from E. coli, serotype 0.127:B8 (6 mg/kg i.v.) was given over 5 min i.v., 1 h later, animals received saline (2.4 ml/kg): (LPS+saline). Rats were subjected to Gram-negative shock. Lipopolysaccharide from E. coli, serotype 0.127:B8 (6 mg/kg i.v.) was given over 5 min i.v., animals received Bβ15-42 (2.4 mg/kg): (LPS+Bβ15-42).
Six hours after the induction of Gram-negative shock, blood was collected from the catheter placed in the right carotid artery. The blood sample was centrifuged (1610×g for 3 min at room temperature) to separate plasma. The following marker enzymes were measured in the plasma as biochemical indicators of multiple organ injury/dysfunction:
Liver injury was assessed by measuring the rise in plasma levels of alanine aminotransferase (ALT, a specific marker for hepatic parenchymal injury) and aspartate aminotransferase (AST, a non-specific marker for hepatic injury).
Plasma levels of glucose and amylase were measured as indirect markers of pancreatic function and injury.
In addition, arterial pO2 was measured as indirect marker of lung function/injury. Laboratory values
Organ (lung, liver, heart and kidney) biopsies of all groups studied were taken at the end of the experiment. The biopsies were fixed in buffered formaldehyde solution (4% in phosphate buffered saline) at room temperature and sent to Vienna. […] In sham treated animals no fibrin thrombi were present.

endothelial surfaces = details: in vitro; cited from earlier work
endothelium = details: cited from earlier work
[4] = in vivo, ischemia/reperfusion; cited from earlier work
[5] = DEN-2 1 LD50 i.p., 4800 μg/kg i.p. twice per day, day 3 to day 8 post infection, p < 0.05 between groups
[6] = plasma, 6 h after induction of Gram-negative shock, Bβ15-42 2.4 mg/kg

T2 sequence (P33151 with tags, fused parts or gaps limits assumed): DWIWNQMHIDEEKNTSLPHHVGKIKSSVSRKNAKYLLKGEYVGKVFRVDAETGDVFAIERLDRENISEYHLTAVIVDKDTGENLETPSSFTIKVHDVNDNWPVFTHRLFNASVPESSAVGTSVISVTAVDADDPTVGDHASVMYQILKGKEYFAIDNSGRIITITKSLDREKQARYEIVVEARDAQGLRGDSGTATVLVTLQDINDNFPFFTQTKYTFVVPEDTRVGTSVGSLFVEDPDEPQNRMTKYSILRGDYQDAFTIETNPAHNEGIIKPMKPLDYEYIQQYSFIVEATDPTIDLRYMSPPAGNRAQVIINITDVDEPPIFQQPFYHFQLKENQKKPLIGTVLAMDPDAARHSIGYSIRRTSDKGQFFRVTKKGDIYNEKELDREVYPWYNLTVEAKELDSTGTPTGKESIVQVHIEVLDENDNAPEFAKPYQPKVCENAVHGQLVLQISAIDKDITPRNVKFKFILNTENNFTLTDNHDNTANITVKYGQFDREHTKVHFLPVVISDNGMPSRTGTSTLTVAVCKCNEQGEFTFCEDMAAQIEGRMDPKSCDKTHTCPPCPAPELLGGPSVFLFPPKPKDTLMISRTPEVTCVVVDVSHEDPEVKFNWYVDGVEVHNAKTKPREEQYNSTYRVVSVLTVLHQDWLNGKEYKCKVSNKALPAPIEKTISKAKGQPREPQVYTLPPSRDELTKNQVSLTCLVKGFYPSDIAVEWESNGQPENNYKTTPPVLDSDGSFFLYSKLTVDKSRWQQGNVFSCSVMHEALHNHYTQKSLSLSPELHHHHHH
T1 sequence (P33151 with tags, fused parts or gaps limits assumed): as above

In the case of “GHRPLDKKREEAPSLRPAPPPISGGGYR [Bβ15-42, peptide matching amino acids 15-42 of the Bbeta chain of human fibrin]”, the “Binding to VE-cadherin (in words)” value [1] is reported as “bound to VE-cadherin in a concentration-dependent manner”, the “Inhibition of binding of flag-tagged peptide Bβ15-42 to VE-cadherin (in words)” value (VE-cadherin) is reported as “completely inhibited” and the “% inhibition of 15-42FLAG-binding to VE-cadherin mean ± SD” value (VE-cadherin; blocking reagent 200 μM, FLAG-tagged Bbeta15-42 12 μM, VE-cadherin 8 nM) is reported as 100 ± 10%. The “mean time to death” value ([2]; DEN-2 1 LD50 i.p., 4800 μg/kg i.p. twice per day, day 3 to day 8 post infection) was “All mice survived”, the “Mortality (%)” value [2, 5] was 0% and the “Survival (%)” value [2, 5] was 100%. For the same sequence, the viremia ([2]; day 2) was 1.2 ± 0.2 1 g PFU/ml, the viremia ([2]; day 3^b) was 2.2 ± 0.2 1 g PFU/ml and the hematokrit ([2]; day 3 after challenge) was 15%. The viremia ([2]; day 4) was 4.2 ± 0.2 1 g PFU/ml, the viremia ([2]; day 5) was 5.6 ± 0.4 1 g PFU/ml and the hematokrit ([2]; day 5 after challenge) was 33%. For the same sequence, the viremia ([2]; day 6) was 6.0 ± 0.4 1 g PFU/ml, the viremia ([2]; day 7) was 5.9 ± 0.4 1 g PFU/ml and the hematokrit ([2]; day 7 after challenge) was 43%. The viremia ([2]; day 28) was 0 1 g PFU/ml, the viremia ([2]; first line of the table, day number not given) was 0 1 g PFU/ml and the IL-1 ([2]; day 3 after challenge) was 32 pg/mL. The IL-6 ([2]; day 3 after challenge) was 140 pg/mL, the TNF ([2]; day 3 after challenge) was 32 pg/mL and the IL-1 ([2]; day 5 after challenge) was 29 pg/mL. For the same sequence, the IL-6 ([2]; day 5 after challenge) was 110 pg/mL, the TNF ([2]; day 5 after challenge) was 65 pg/mL and the IL-1 ([2]; day 7 after challenge) was 28 pg/mL. The IL-6 ([2]; day 7 after challenge) was 100 pg/mL, the TNF ([2]; day 7 after challenge) was 45 pg/mL and the Survival ([3]; LPS 6 mg/kg i.v. plus Bβ15-42 2.4 mg/kg, n = 20 in each group, p < 0.05) was 88%. For the same sequence, the “heart rate (mean)” value ([3]; LPS + Bβ15-42, time 0 h) was 436.9, the “mean arterial pressure (mean)” value ([3]; LPS + Bβ15-42, time 0 h) was 128.9 and the “heart rate (mean)” value ([3]; LPS + Bβ15-42, time 1 h) was 484.8. The “mean arterial pressure (mean)” value ([3]; LPS + Bβ15-42, time 1 h) was 83.7, the “heart rate (mean)” value ([3]; LPS + Bβ15-42, time 2 h) was 484.1 and the “mean arterial pressure (mean)” value ([3]; LPS + Bβ15-42, time 2 h) was 102.3. For the same sequence, the “heart rate (mean)” value ([3]; LPS + Bβ15-42, time 3 h) was 509.8, the “mean arterial pressure (mean)” value ([3]; LPS + Bβ15-42, time 3 h) was 103.2 and the “heart rate (mean)” value ([3]; LPS + Bβ15-42, time 4 h) was 516.7. For the same sequence, the “mean arterial pressure (mean)” value ([3]; LPS + Bβ15-42, time 4 h) was 101.2, the “heart rate (mean)” value ([3]; LPS + Bβ15-42, time 5 h) was 533.7 and the “mean arterial pressure (mean)” value ([3]; LPS + Bβ15-42, time 5 h) was 97.1. For the same sequence, the “heart rate (mean)” value ([3]; LPS + Bβ15-42, time 6 h) was 541.6, the “mean arterial pressure (mean)” value ([3]; LPS + Bβ15-42, time 6 h) was 107.7 and the “Fibrin thrombi in sections stained for fibrin deposits, controls versus treated (in words)” value ([3]; acidic fuchsin-orange G, p<0.05) was “significantly elevated numbers of fibrin thrombi in controls receiving LPS alone as compared with animals treated with LPS plus Bβ15-42”. The pO2 ([3]; arterial, 6 h after induction of Gram-negative shock, Bβ15-42 2.4 mg/kg) was 98.7, the “Standard H&E-stained organ sections (lung, liver, heart, kidney), comparison of groups” value ([3]; biopsies at the end of the experiment) was “no differences” and the “mean number of fibrin thrombi within vessels” value (shortened to “mean number”) ([3]; heart) was 5 + 2. For the same sequence, the “mean number” value ([3]; kidney) was 2 + 9, the “mean number” value ([3]; liver) was 78 + 37 and the “mean number” value ([3]; lung) was 1 + 0. It also gave an ALT [3, 6] of 261.9, an AST [3, 6] of 529.0 and an Amylase [3, 6] of 1945.1. The Creatinine [3, 6] was 0.6, the Glucose [3, 6] was 45.8 and the Urea [3, 6] was 107.8. For the same sequence, the “Binding of fibrin fragments to endothelial surfaces (in words)” value (endothelial surfaces) was “blocks binding of fibrin fragments to endothelial surfaces”, the “Inflammation in vitro (in words)” value (endothelium) was “blocks inflammation in vitro” and the “Myocardial infarct sizes (in words)” value [4] was “reduces myocardial infarct sizes”. For the same sequence, the “Myocardial inflammation (in words)” value [4] was “prevents myocardial inflammation”.
